Our source for the IC50 values is paper PMC10015785, “A proteasomal β5 subunit of Haemonchus contortus with a role in the growth, development and life span” (Parasites & Vectors, 2023).

For the assay, the target named is T1, proteasomal β5 subunit (Hc-PBS-5) (Haemonchus contortus, UniProt A0A7I5E5W5).
T1 sequence (A0A7I5E5W5 65-284): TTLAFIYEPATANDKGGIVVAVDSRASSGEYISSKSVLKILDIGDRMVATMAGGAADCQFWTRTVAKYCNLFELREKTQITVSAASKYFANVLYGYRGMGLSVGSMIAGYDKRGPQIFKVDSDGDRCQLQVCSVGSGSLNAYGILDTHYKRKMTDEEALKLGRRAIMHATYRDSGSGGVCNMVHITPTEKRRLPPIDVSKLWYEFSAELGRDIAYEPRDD
The format is biochemical.

Usually IC50 stands for the concentration at which inhibition is half-maximal. Read a low IC50 as greater potency in that assay. Take `CC(C)C[C@H](NC(=O)[C@H](Cc1ccccc1)NC(=O)c1cnccn1)B(O)O` [bortezomib]: the IC50 was determined as 622 nM.
